# Assay results from patent US20190290685A1, “COMPOSITIONS AND ASSOCIATED METHODS OF MESOPOROUS NANOPARTICLES COMPRISING PLATINUM-ACRIDINE MOLECULES” (Wake Forest University, priority 2016, published 2019).
# “Also recorded” adds a separate entry of the source.
# Experiments:
# [1] = tested on: BxPC3 cells; experiment: Flow cytometry cell cycle analysis; type: cell-based, human; conditions: BxPC3, 48 h, micromolar-to-submicromolar concentrations; dinitrate salt
# Experimental: BxPC3 cells were treated with P1A1@MSNLP-COOH-LIP10, P1A1, or MSNLP-COOH-LIP10 for 48 h at the indicated concentrations. Cells were gently trypsinized, washed in PBS, fixed in ice-cold EtOH:PBS (1:1) at equivalent cell concentrations, and stored at −20° C. Cells were washed with PBS, stained using FxCycle PI/RNase staining solution (Molecular Probes, Eugene, Oreg.) and assessed by flow cytometry using an Accuri C6 (BD Biosciences, San Jose, Calif.). Data was analyzed using Modfit software v3.3.
# [2] = tested on: BxPC3 pancreatic cancer cells; experiment: Confocal fluorescence microscopy, uptake and subcellular distribution; type: cell-based, human; conditions: BxPC3, 5 μM P1A1 or equivalent, 1 h and 12 h
# Experimental: BxPC3 cells were seeded onto chamber slides (Nunc, Rochester, N.Y.) and allowed to attach for 48 h. Cells were then treated with 5 μM P1A1, P1A1@MSNLP-COOH-LIP10 at an equivalent concentration of drug, or vehicle. The medium was aspirated and cells were co-stained by incubating with 75 nM Lysotracker Red in complete medium for 1 h. Cells were washed 3× with PBS and fixed in 4% formaldehyde/PBS for 15 min. After another three PBS washes, cover slips were mounted onto 4-well chamber slides using vectashield HardSet mounting medium (Vector Labs, Burlingame, Calif.) and stored at 4° C. until ready to use. Images were collected using a Zeiss LSM 710 confocal microscope (Carl Zeiss MicroImaging, Thornwood, N.Y.) using a 63× (PLAN Oil APO, 1.4 NA) objective lens. All image channels were acquired in a sequential mode to minimize excitation cross talk and emission bleed-through. […] For comparative fluorescence intensity analysis, great care was taken to equalize excitation power, pinhole settings, PMT gain, and offset values across and within imaging sessions for each respective channel. […] Where necessary, post-acquisition contrast adjustments were applied to the entire image, and processing was identical in all fluorescence channels. […]
substance,measurement,setting,value
[PtCl(en)(N-[acridin-9-ylaminoethyl]-N-methylpropionamidine)] dinitrate salt [Compound P1A1],effect on cell cycle distribution,[1],robust S phase arrest; also recorded: sub-G1 population at the highest dose
same,uptake and subcellular distribution,[2],"accumulates rapidly (about 1 h) in cells to produce blue fluorescence associated with the entire cytoplasm and, to a lesser extent, the nuclear region"
